Laboratory results published in US11230543B2, “Biaryl monobactam compounds and methods of use thereof for the treatment of bacterial infections” (priority 2015, dated 2022).
Where a name gives a salt, the structure may show the parent alone.

How the values were obtained:
[1] = system: Klebsiella pneumoniae expressing KPC-1 (CL6569); test: Antibiotic activity: growth inhibitory concentration (OD600), Klebsiella pneumoniae CL6569; type: cell-based; details: lowest concentration inhibiting 95% of bacterial growth, in the presence of β lactamase inhibitor Relebactam 4 μg/mL, 35±2° C. for 22 hours, tested range 100 μM to 0.098 μM
Method in brief: (§1)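 Clinical strains at ~2×10^5 CFU/mL in cation-adjusted Mueller-Hinton II broth, with relebactam at 4 μg/mL final; compounds 100 μM to 0.098 μM final. After 22 hours at 35±2° C, OD600 read; MITC95 is lowest concentration giving 95% growth inhibition.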

[2] = system: Pseudomonas aeruginosa expressing AmpC (CL5701); test: Antibiotic activity: growth inhibitory concentration (OD600), Pseudomonas aeruginosa CL5701; type: cell-based; details: lowest concentration inhibiting 95% of bacterial growth; in the presence of β lactamase inhibitor Relebactam 4 μg/mL; 35±2° C. for 22 hours; tested range 100 μM to 0.098 μM
Method in brief: as §1

Compound	KP_CL6569 MITC95 [1] [µM]	PA_CL5701 MITC95 [2] [µM]	KP_CL6569 MITC95 ([1]; 2,2,2-trifluoroacetate) [µM]
CC1(C)[C@H](NC(=O)/C(=N\O[C@@H](COc2ccc(-n3cc[n+](CCCN)c3)nc2)C(=O)O)c2csc(N)n2)C(=O)N1OS(=O)(=O)[O-] [Example 112, (S)-3-((Z)-2-(((S)-2-((6-(3-(3-aminopropyl)-1H-imidazol-3-ium-1-yl)pyridin-3-yl)oxy)-1-carboxyethoxy)imino)-2-(2-aminothiazol-4-yl)acetamido)-2,2-dimethyl-4-oxoazetidin-1-yl sulfate]	0.7813	10.42	
C[n+]1cc(-c2ccc(OC[C@H](O/N=C(\C(=O)N[C@@H]3C(=O)N(OS(=O)(=O)[O-])C3(C)C)c3csc(N)n3)C(=O)O)cc2)ccc1N1CCNCC1 [Example 71, (S)-3-((Z)-2-(2-aminothiazol-4-yl)-2-(((S)-1-carboxy-2-(4-(1-methyl-6-(piperazin-1-yl)pyridin-1-ium-3-yl)phenoxy)ethoxy)imino)acetamido)-2,2-dimethyl-4-oxoazetidin-1-yl sulfate]	0.1953	6.25	
C[n+]1cc(-c2ccc(OCC(C)(O/N=C(\C(=O)N[C@@H]3C(=O)N(OS(=O)(=O)O)C3(C)C)c3csc(N)n3)C(=O)O)cc2)cn1CCCN (single isomer, unassigned) [Example 23A, 2,2,2-trifluoroacetate]		3.125	0.3906
C[n+]1cc(-c2ccc(OC[C@H](O/N=C(\C(=O)N[C@@H]3C(=O)N(OS(=O)(=O)[O-])C3(C)C)c3csc(N)n3)C(=O)O)cc2)ccc1NCC1(N)CC1 [Example 74, (S)-3-((Z)-2-(((S)-2-(4-(6-(((1-aminocyclopropyl)methyl)amino)-1-methylpyridin-1-ium-3-yl)phenoxy)-1-carboxyethoxy)imino)-2-(2-aminothiazol-4-yl)acetamido)-2,2-dimethyl-4-oxoazetidin-1-yl sulfate]	0.1953	6.25	
C[n+]1nc(-c2ccc(OC[C@H](O/N=C(\C(=O)N[C@@H]3C(=O)N(OS(=O)(=O)[O-])C3(C)C)c3csc(N)n3)C(=O)O)cc2)ccc1NCCCN [Example 123, (S)-3-((Z)-2-(((S)-2-(4-(6-((3-aminopropyl)amino)-1-methylpyridazin-1-ium-3-yl)phenoxy)-1-carboxyethoxy)imino)-2-(2-aminothiazol-4-yl)acetamido)-2,2-dimethyl-4-oxoazetidin-1-yl sulfate]	0.3906	12.5	
CC1(C)[C@H](NC(=O)/C(=N\O[C@@H](COc2ccc(Nc3nccn3CCCN)nc2)C(=O)O)c2csc(N)n2)C(=O)N1OS(=O)(=O)O [Example 37A, 3-(2-((5-((S)-2-((((Z)-1-(2-aminothiazol-4-yl)-2-(((S)-2,2-dimethyl-4-oxo-1-(sulfooxy)azetidin-3-yl)amino)-2-oxoethylidene)amino)oxy)-2-carboxyethoxy)pyridin-2-yl)amino)-1H-imidazol-1-yl)propan-1-aminium 2,2,2-trifluoroacetate]	0.78	3.13	
CCOC(=O)[C@H](COc1ccc(-c2cn(CCCN)[n+](C)c2)cc1)O/N=C(\C(=O)N[C@@H]1C(=O)N(OS(=O)(=O)[O-])C1(C)C)c1csc(N)n1 [Example 115, (S)-3-((Z)-2-((((S)-3-(4-(1-(3-aminopropyl)-2-methyl-1H-pyrazol-2-ium-4-yl)phenoxy)-1-ethoxy-1-oxopropan-2-yl)oxy)imino)-2-(2-aminothiazol-4-yl)acetamido)-2,2-dimethyl-4-oxoazetidin-1-yl sulfate]	12.5	100	
COP(=O)(O)[C@H](COc1ccc(-c2cn(CCCN)[n+](C)c2)cc1)O/N=C(\C(=O)N[C@@H]1C(=O)N(OS(=O)(=O)O)C1(C)C)c1csc(N)n1.O=C(O)C(F)(F)F [Example 41, (3S)-3-((Z)-2-(((1R)-2-(4-(1-(3-aminopropyl)-2-methyl-1H-pyrazol-2-ium-4-yl)phenoxy)-1-(hydroxy(methoxy)phosphoryl)ethoxy)imino)-2-(2-aminothiazol-4-yl)acetamido)-2,2-dimethyl-4-oxoazetidin-1-yl sulfate compound with 2,2,2-trifluoroacetic acid (1:1)]	1.563	25	
C[n+]1cc(-c2ccc(OC[C@](C)(O/N=C(\C(=O)N[C@@H]3C(=O)N(OS(=O)(=O)[O-])C3(C)C)c3csc(N)n3)C(=O)O)cc2F)cn1CCCN [Example 105, (S)-3-((Z)-2-((((Sn-1-(4-(1-(3-aminopropyl)-2-methyl-1H-pyrazol-2-ium-4-yl)-3-fluorophenoxy)-2-carboxypropan-2-yl)oxy)imino)-2-(2-aminothiazol-4-yl)acetamido)-2,2-dimethyl-4-oxoazetidin-1-yl sulfate]	0.3906	3.125	
C[n+]1cc(-c2ccc(OC[C@H](O/N=C(\C(=O)N[C@@H]3C(=O)N(OS(=O)(=O)O)C3(C)C)c3csc(N)n3)C(=O)O)cc2)cn1CCCNCC1CNC1 [Example 103, (S)-3-((E)-2-(2-aminothiazol-4-yl)-2-(((S)-2-(4-(1-(3-((azetidin-3-ylmethyl)amino)-propyl)-2-methyl-1H-pyrazol-2-ium-4-yl)phenoxy)-1-carboxyethoxy)imino)acetamido)-2,2-dimethyl-4-oxoazetidin-1-yl sulfate, 3TFA]	0.09766	3.125	
CC1(C)[C@H](NC(=O)/C(=N\O[C@@H](COc2ccc(-n3cc[n+](CC4CNC4)c3)nc2)C(=O)O)c2csc(N)n2)C(=O)N1OS(=O)(=O)[O-] [Example 109, (S)-3-((Z)-2-(2-aminothiazol-4-yl)-2-(((S)-2-((6-(3-(azetidin-3-ylmethyl)-1H-imidazol-3-ium-1-yl)pyridin-3-yl)oxy)-1-carboxyethoxy)imino)acetamido)-2,2-dimethyl-4-oxoazetidin-1-yl sulfate]	0.7813	12.5	
CC1(C)[C@H](NC(=O)/C(=N\O[C@@H](COc2ccc(-c3cnn(CCCN)c3)nc2)C(=O)O)c2csc(N)n2)C(=O)N1OS(=O)(=O)O.O=C(O)C(F)(F)F [Example 13, 3-(4-(5-((S)-2-((((Z)-1-(2-aminothiazol-4-yl)-2-(((S)-2,2-dimethyl-4-oxo-1-(sulfooxy)azetidin-3-yl)amino)-2-oxo-ethylidene)amino)oxy)-2-carboxyethoxy)pyridin-2-yl)-1H-pyrazol-1-yl)propan-1-aminium 2,2,2-trifluoroacetate]	0.7813	12.5	
C[n+]1cc(-c2ccc(OC[C@@](C)(O/N=C(\C(=O)N[C@@H]3C(=O)N(OS(=O)(=O)O)C3(C)C)c3nc(N)sc3Cl)C(=O)O)cc2)cn1CCCN [Example 51B, (S)-3-((Z)-2-(2-amino-5-chlorothiazol-4-yl)-2-((((R)-1-(4-(1-(3-aminopropyl)-2-methyl-1H-pyrazol-2-ium-4-yl)phenoxy)-2-carboxypropan-2-yl)oxy)imino)acetamido)-2,2-dimethyl-4-oxoazetidin-1-yl sulfate]	6.25	25	
Cc1cc(-c2ccc(OC[C@H](O/N=C(\C(=O)N[C@@H]3C(=O)N(OS(=O)(=O)O)C3(C)C)c3csc(N)n3)C(=O)O)cc2)[n+](C)n1CCCN.O=C([O-])C(F)(F)F [Example 22, 1-(3-aminopropyl)-3-(4-((S)-2-((((Z)-1-(2-aminothiazol-4-yl)-2-(((S)-2,2-dimethyl-4-oxo-1-(sulfooxy)azetidin-3-yl)amino)-2-oxo-ethylidene)amino)oxy)-2-carboxyethoxy)phenyl)-2,5-dimethyl-1H-pyrazol-2-ium 2,2,2-trifluoroacetate]	0.7813	25	
C[C@@H]1[C@H](NC(=O)/C(=N\O[C@@](C)(COc2ccc(-c3cn(CCCN)[n+](C)c3)cc2)C(=O)O)c2csc(N)n2)C(=O)N1S(=O)(=O)O.O=C([O-])C(F)(F)F [Example 25, 1-(3-aminopropyl)-4-(4-((S)-2-((((Z)-1-(2-aminothiazol-4-yl)-2-(((2R,3S)-2-methyl-4-oxo-1-sulfoazetidin-3-yl)amino)-2-oxoethylidene)amino)oxy)-2-carboxypropoxy)phenyl)-2-methyl-1H-pyrazol-2-ium 2,2,2-trifluoroacetate]	0.3906	3.125	
CC1[C@H](NC(=O)/C(=N\O[C@@H](COc2ccc(-c3cnn(CCCN)c3)cc2)C(=O)O)c2csc(N)n2)C(=O)N1S(=O)(=O)O (stereo in doubt) [Example 8, (S)-3-(4-(1-(3-aminopropyl)-1H-pyrazol-4-yl)phenoxy)-2-((((Z)-1-(2-aminothiazol-4-yl)-2-(((2R,3S)-2-methyl-4-oxo-1-sulfoazetidin-3-yl)amino)-2-oxoethylidene)amino)oxy)propanoic acid]	3.125	25	
C[n+]1cc(-c2ccc(OC[C@H](O/N=C(\C(=O)N[C@@H]3C(=O)N(OS(=O)(=O)O)C3(C)C)c3csc(N)n3)C(=O)O)cc2F)cn1CCCN [Example 24, (S)-3-((Z)-2-(((S)-2-(4-(1-(3-aminopropyl)-2-methyl-1H-pyrazol-2-ium-4-yl)-3-fluorophenoxy)-1-carboxyethoxy)imino)-2-(2-aminothiazol-4-yl)acetamido)-2,2-dimethyl-4-oxoazetidin-1-yl sulfate]	0.3906	3.125	
